Laboratory results: patent US8148510B2, “Antifungal polypeptides” (Pioneer Hi-Bred International, Inc., priority 2004, dated 2012)
“Also recorded” adds a separate entry of the source. Read-outs that look alike come from different tables or passages of the source.

Assays:
[1] = tested on: Fusarium verticillioides (FVE); type: cell-based
Diplodia maydis (DMA) = type: cell-based; settings: plate assay, qualitative
[2] = tested on: Colletotrichum graminicola (CGR); type: cell-based; settings: plate assay, qualitative
[3] = tested on: Fusarium graminearum (FGR); type: cell-based; settings: plate assay, qualitative
[4] = tested on: F. verticilioides line that expresses the reporter gene β-glucuronidase (GUS); assay: Fusarium verticillioides challenge assay of maize seedlings (GUS activity); type: in vivo; settings: maize seedlings transformed with PHP22300; three days after spore exposure; 4 explants per event
[5] = tested on: Fusarium verticillioides (FVE); assay: antifungal activity assay of transgenic maize callus extracts; type: cell-based; settings: against FVE, qualitative
C. graminicola [6] = assay: upper stalk resistance of transgenic maize plants; type: in vivo, Colletotrichum graminicola; settings: T0 transgenic maize, uppermost stalk internode, about five days after inoculation, 10 cm^2 area around inoculation site; control 84.7±2.6%
C. graminicola [7] = assay: lower stalk resistance of transgenic maize plants; type: in vivo, Colletotrichum graminicola; settings: T0 transgenic maize, lowest internode inoculated 10 DAP, scored after 21 days, five lowermost internodes; empty vector control 4.0±0.2

| Molecule | antifungal activity against FVE [1] | antifungal activity against DMA (Diplodia maydis (DMA)) | antifungal activity against CGR [2] | antifungal activity against FGR [3] | average GUS activity (correlates with fungal biomass) relative to controls [4] | antifungal activity of protein produced and isolated from transgenic maize callus [5] | antifungal activity against DMA (Diplodia maydis (DMA); listed as SEQ ID NO:1) | mean percent infected area (C. graminicola [6]) [%] | mean score (number of internodes showing more than 75% disease) (C. graminicola [7]) | antifungal activity against CGR ([2]; listed as SEQ ID NO:1) | antifungal activity against FGR ([3]; listed as SEQ ID NO:1) | antifungal activity against DMA (Diplodia maydis (DMA); listed as SEQ ID NO:9) | antifungal activity against CGR ([2]; listed as SEQ ID NO:9) | antifungal activity against FGR ([3]; listed as SEQ ID NO:9) |
| --- | --- | --- | --- | --- | --- | --- | --- | --- | --- | --- | --- | --- | --- | --- |
| LBNL-5197/8-2: antifungal polypeptide from Penicillium miczyinskii strain K01-17A4 (LSKYGGECSLAHNTCTYLKGGKNQVVACGTAANKRCKTDRHHCEYDEYHKTVDCQTPV) | anti-FVE activity; also recorded: display antifungal activity | display antifungal activity | display antifungal activity | display antifungal activity |  |  |  |  |  |  |  |  |  |  |
| LBNL-9827-1: antifungal polypeptide from Monascus ruber IMV 00127; identical to SEQ ID NO:9 without 3 N-terminal amino acids (LSKFGGECSLKHNTCTYLKGGKNHVVNCGSAANKKCKSDRHHCEYDEHHKRVDCQTPV) | active against FVE; also recorded: display antifungal activity | display antifungal activity | display antifungal activity | display antifungal activity |  |  |  |  |  |  |  |  |  |  |
| LBNL-5220: antifungal polypeptide (55 amino acids, mature mass 6174 Da) isolated from Penicillium simplicissimum fermentation broth (LKYTGTCTRANNQCKYKGQNDRDTFVKCPTFANKKCTRDGAPCSFDSYSRAVTCD) | showed antifungal activity; also recorded: display antifungal activity |  |  |  | decrease in average GUS activity | has antifungal activity | showed antifungal activity; also recorded: display antifungal activity | 54.4±1.4 | 2.2±0.1 | showed antifungal activity; also recorded: display antifungal activity | showed antifungal activity; also recorded: display antifungal activity |  |  |  |
| LBNL-9827-2: antifungal polypeptide from Monascus ruber IMV 00127; 3 additional N-terminal amino acids versus SEQ ID NO:7 (protein) DVQLSKFGGECSLKHNTCTYLKGGKNHVVNCGSAANKKCKSDRHHCEYDEHHKRVDCQTPV | inhibited FVE, FGR, CGR, and DMA in a dose-dependent fashion; also recorded: inhibited Colletotrichum graminicola, Diplodia maydis, Fusarium graminearum, and Fusarium verticillioides in a dose-dependent fashion; also recorded: display antifungal activity |  |  |  |  |  |  |  |  |  |  | inhibited FVE, FGR, CGR, and DMA in a dose-dependent fashion; also recorded: inhibited Colletotrichum graminicola, Diplodia maydis, Fusarium graminearum, and Fusarium verticillioides in a dose-dependent fashion; also recorded: display antifungal activity | inhibited FVE, FGR, CGR, and DMA in a dose-dependent fashion; also recorded: inhibited Colletotrichum graminicola, Diplodia maydis, Fusarium graminearum, and Fusarium verticillioides in a dose-dependent fashion; also recorded: display antifungal activity | inhibited FVE, FGR, CGR, and DMA in a dose-dependent fashion; also recorded: inhibited Colletotrichum graminicola, Diplodia maydis, Fusarium graminearum, and Fusarium verticillioides in a dose-dependent fashion; also recorded: display antifungal activity |
